{"source": "PubChem BioAssay AID180", "about": "(DTP/NCI, 2004)", "system": "BDF1 mice, Adenocarcinoma 755 s.c., tumor weight T/C", "assay": "NCI In Vivo Anticancer Drug Screen. Data for tumor model Adenocarcinoma 755 (subcutaneous) in B6D2F1 (BDF1) mice", "conditions": "endpoint: mean tumor weight, higher = larger tumour", "how_it_was_run": "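In vivo antitumor screen on a transplantable tumor line. Result equals the measure in compound-treated animals divided by the same measure in vehicle controls.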", "key": {"[1]": {"conditions": "dose: 62.5 mg/kg/injection, schedule: Q01DX011 (ip), vehicle: methylcellulose (MC)"}, "[2]": {"conditions": "dose: 125.0 mg/kg/injection, schedule: Q01DX011 (ip), vehicle: methylcellulose (MC)"}, "[3]": {"conditions": "dose: 250.0 mg/kg/injection, schedule: Q01DX011 (ip), vehicle: methylcellulose (MC)"}}, "note": "Where “and” joins values, the source holds several entries; their conditions need not be identical. Equal values may be shown once."}
{"smiles": "CCCCC(CCCC)(C(=O)OCC)C(=O)OCC", "values": [{"measurement": "T/C", "setting": "dose: 40.6 mg/kg/injection, schedule: Q01DX011 (ip), vehicle: methylcellulose (MC)", "value": "65 % of control"}, {"measurement": "T/C", "setting": "dose: 81.25 mg/kg/injection, schedule: Q01DX011 (ip), vehicle: methylcellulose (MC)", "value": "63 % of control"}, {"measurement": "T/C", "setting": "dose: 162.5 mg/kg/injection, schedule: Q01DX011 (ip), vehicle: methylcellulose (MC)", "value": "52 % of control"}]}
{"smiles": "CC(=O)OCC1CCCC(n2cnc3c(Cl)ncnc32)O1", "note": "(centres undefined)", "values": [{"measurement": "T/C", "setting": "[1]", "value": "74 % of control"}, {"measurement": "T/C", "setting": "[2]", "value": "52 % of control"}, {"measurement": "T/C", "setting": "[3]", "value": "26 % of control"}]}
{"smiles": "Ic1ncnc2nc[nH]c12", "values": [{"measurement": "T/C", "setting": "dose: 2.5 mg/kg/injection, schedule: Q01DX011 (ip), vehicle: carboxymethylcellulose (CMC)", "value": "90 % of control"}, {"measurement": "T/C", "setting": "dose: 3.2 mg/kg/injection, schedule: Q01DX011 (oral), vehicle: carboxymethylcellulose (CMC)", "value": "78 % of control"}, {"measurement": "T/C", "setting": "dose: 5.0 mg/kg/injection, schedule: Q01DX011 (ip), vehicle: carboxymethylcellulose (CMC)", "value": "90 % of control"}, {"measurement": "T/C", "setting": "dose: 7.5 mg/kg/injection, schedule: Q01DX011 (oral), vehicle: carboxymethylcellulose (CMC)", "value": "41 % of control"}, {"measurement": "T/C", "setting": "dose: 15.0 mg/kg/injection, schedule: Q01DX011 (oral), vehicle: carboxymethylcellulose (CMC)", "value": "14 % of control"}, {"measurement": "T/C", "setting": "dose: 62.5 mg/kg/injection, schedule: Q01DX011 (ip), vehicle: carboxymethylcellulose (CMC)", "value": "21 % of control"}]}
{"smiles": "Nc1nc(SCc2ccccc2)c2ncn(Cc3ccccc3)c2n1", "values": [{"measurement": "T/C", "setting": "[1]", "value": "28 % of control"}, {"measurement": "T/C", "setting": "[2]", "value": "14 % of control"}, {"measurement": "T/C", "setting": "[3]", "value": "7 % of control"}]}
{"smiles": "CCOC(=O)Sc1ncnc2nc[nH]c12", "values": [{"measurement": "T/C", "setting": "dose: 0.21 mg/kg/injection, schedule: Q01DX011 (ip), vehicle: carboxymethylcellulose (CMC)", "value": "87 % of control"}, {"measurement": "T/C", "setting": "dose: 0.42 mg/kg/injection, schedule: Q01DX011 (ip), vehicle: carboxymethylcellulose (CMC)", "value": "41 % of control"}, {"measurement": "T/C", "setting": "dose: 0.85 mg/kg/injection, schedule: Q01DX011 (ip), vehicle: carboxymethylcellulose (CMC)", "value": "50 % of control"}, {"measurement": "T/C", "setting": "dose: 1.75 mg/kg/injection, schedule: Q01DX011 (ip), vehicle: carboxymethylcellulose (CMC)", "value": "3 % of control and 7 % of control and 12 % of control"}, {"measurement": "T/C", "setting": "dose: 3.5 mg/kg/injection, schedule: Q01DX011 (ip), vehicle: carboxymethylcellulose (CMC)", "value": "4 % of control"}, {"measurement": "T/C", "setting": "dose: 7.0 mg/kg/injection, schedule: Q01DX011 (ip), vehicle: carboxymethylcellulose (CMC)", "value": "1 % of control and 5 % of control"}, {"measurement": "T/C", "setting": "dose: 14.0 mg/kg/injection, schedule: Q01DX011 (ip), vehicle: carboxymethylcellulose (CMC)", "value": "2 % of control and 8 % of control"}, {"measurement": "T/C", "setting": "dose: 28.0 mg/kg/injection, schedule: Q01DX011 (ip), vehicle: carboxymethylcellulose (CMC)", "value": "8 % of control"}, {"measurement": "T/C", "setting": "dose: 56.0 mg/kg/injection, schedule: Q01DX011 (ip), vehicle: carboxymethylcellulose (CMC)", "value": "8 % of control"}, {"measurement": "T/C", "setting": "dose: 112.0 mg/kg/injection, schedule: Q01DX011 (ip), vehicle: carboxymethylcellulose (CMC)", "value": "7 % of control"}]}
{"smiles": "CC(=O)[C@H]1CC[C@H]2[C@@H]3CCC4=CC(=O)C=C[C@]4(C)[C@H]3C(=O)C[C@]12C", "values": [{"measurement": "T/C", "setting": "dose: 66.0 mg/kg/injection, schedule: Q01DX011 (sc), vehicle: steriod suspending solution", "value": "62 % of control and 74 % of control"}, {"measurement": "T/C", "setting": "dose: 132.0 mg/kg/injection, schedule: Q01DX011 (sc), vehicle: steriod suspending solution", "value": "37 % of control and 58 % of control"}, {"measurement": "T/C", "setting": "dose: 264.0 mg/kg/injection, schedule: Q01DX011 (sc), vehicle: steriod suspending solution", "value": "25 % of control and 44 % of control"}, {"measurement": "T/C", "setting": "dose: 528.0 mg/kg/injection, schedule: Q01DX011 (sc), vehicle: steriod suspending solution", "value": "28 % of control and 35 % of control"}]}
{"smiles": "COC(=O)c1nc(-c2ccc3c(n2)C(=O)C(N)=C(OC)C3=O)c(N)c(-c2ccc(OC)c(OC)c2O)c1C", "values": [{"measurement": "T/C", "setting": "dose: 0.31 mg/kg/injection, schedule: Q01DX011 (ip), vehicle: other", "value": "42 % of control"}, {"measurement": "T/C", "setting": "dose: 0.63 mg/kg/injection, schedule: Q01DX011 (ip), vehicle: other", "value": "14 % of control"}, {"measurement": "T/C", "setting": "dose: 1.25 mg/kg/injection, schedule: Q01DX011 (ip), vehicle: other", "value": "1 % of control"}, {"measurement": "T/C", "setting": "dose: 6.0 mg/kg/injection, schedule: Q01DX006 (ip), vehicle: water", "value": "40 % of control"}, {"measurement": "T/C", "setting": "dose: 12.5 mg/kg/injection, schedule: Q01DX006 (ip), vehicle: water", "value": "7 % of control"}]}
{"smiles": "OC1CC([CH2][Hg][Cl])OC([CH2][Hg][Cl])C1", "note": "(centres undefined)", "values": [{"measurement": "T/C", "setting": "dose: 6.0 mg/kg/injection, schedule: Q01DX011 (ip), vehicle: carboxymethylcellulose (CMC)", "value": "95 % of control"}, {"measurement": "T/C", "setting": "dose: 12.0 mg/kg/injection, schedule: Q01DX011 (ip), vehicle: carboxymethylcellulose (CMC)", "value": "109 % of control"}, {"measurement": "T/C", "setting": "dose: 25.0 mg/kg/injection, schedule: Q01DX011 (ip), vehicle: carboxymethylcellulose (CMC)", "value": "28 % of control and 36 % of control"}, {"measurement": "T/C", "setting": "dose: 50.0 mg/kg/injection, schedule: Q01DX011 (ip), vehicle: carboxymethylcellulose (CMC)", "value": "92 % of control"}]}
{"smiles": "Cn1cnc(=S)c2[nH]cnc21", "values": [{"measurement": "T/C", "setting": "dose: 300.0 mg/kg/injection, schedule: Q01DX011 (ip), vehicle: carboxymethylcellulose (CMC)", "value": "61 % of control"}]}
